Assay: xn = mol fraction of the nth substance listed
Settings: Liquid, Vibrating tube method

CCC(C)Cl (configuration not stated) [2-chlorobutane] + CCCCCCC
mass density [kg/m3]
Settings	293.15 K	298.15 K
100 kPa, x2 = 0.0524	–	853.5
100 kPa, x2 = 0.1018	–	841
100 kPa, x2 = 0.1968	–	818.39
100 kPa, x2 = 0.3006	–	795.55
100 kPa, x2 = 0.4029	–	774.75
100 kPa, x2 = 0.5017	–	756.09
100 kPa, x2 = 0.6008	–	738.72
100 kPa, x2 = 0.7023	–	722.14
100 kPa, x2 = 0.7977	–	707.68
100 kPa, x2 = 0.8986	–	693.37
100 kPa, x2 = 0.952	–	686.19
2000 kPa, x2 = 0.0524	–	855.76
2000 kPa, x2 = 0.1018	–	843.26
2000 kPa, x2 = 0.1968	–	820.66
2000 kPa, x2 = 0.3006	–	797.76
2000 kPa, x2 = 0.4029	–	776.96
2000 kPa, x2 = 0.5017	–	758.28
2000 kPa, x2 = 0.6008	–	740.85
2000 kPa, x2 = 0.7023	–	724.29
2000 kPa, x2 = 0.7977	–	709.77
2000 kPa, x2 = 0.8986	–	695.44
2000 kPa, x2 = 0.952	–	688.29
5000 kPa, x2 = 0.0524	–	859.07
5000 kPa, x2 = 0.1018	–	846.59
5000 kPa, x2 = 0.1968	–	823.96
5000 kPa, x2 = 0.3006	–	800.99
5000 kPa, x2 = 0.4029	–	780.1
5000 kPa, x2 = 0.5017	–	761.4
5000 kPa, x2 = 0.6008	–	743.93
5000 kPa, x2 = 0.7023	–	727.26
5000 kPa, x2 = 0.7977	–	712.67
5000 kPa, x2 = 0.8986	–	698.28
5000 kPa, x2 = 0.952	–	691.09
7000 kPa, x2 = 0.0524	–	861.28
7000 kPa, x2 = 0.1018	–	848.7
7000 kPa, x2 = 0.1968	–	826.06
7000 kPa, x2 = 0.3006	–	803.03
7000 kPa, x2 = 0.4029	–	782.16
7000 kPa, x2 = 0.5017	–	763.43
7000 kPa, x2 = 0.6008	–	745.91
7000 kPa, x2 = 0.7023	–	729.24
7000 kPa, x2 = 0.7977	–	714.61
7000 kPa, x2 = 0.8986	–	700.19
7000 kPa, x2 = 0.952	–	692.99
10000 kPa, x2 = 0.0524	–	864.5
10000 kPa, x2 = 0.1018	–	851.96
10000 kPa, x2 = 0.1968	–	829.21
10000 kPa, x2 = 0.3006	–	806.14
10000 kPa, x2 = 0.4029	–	785.11
10000 kPa, x2 = 0.5017	–	766.31
10000 kPa, x2 = 0.6008	–	748.74
10000 kPa, x2 = 0.7023	–	731.99
10000 kPa, x2 = 0.7977	–	717.31
10000 kPa, x2 = 0.8986	–	702.79
10000 kPa, x2 = 0.952	–	695.56
20000 kPa, x2 = 0.0524	–	874.44
20000 kPa, x2 = 0.1018	–	861.8
20000 kPa, x2 = 0.1968	–	838.93
20000 kPa, x2 = 0.3006	–	815.63
20000 kPa, x2 = 0.4029	–	794.49
20000 kPa, x2 = 0.5017	779.78	775.52
20000 kPa, x2 = 0.6008	761.93	757.79
20000 kPa, x2 = 0.7023	744.92	740.82
20000 kPa, x2 = 0.7977	730	726.04
20000 kPa, x2 = 0.8986	715.31	711.31
20000 kPa, x2 = 0.952	707.96	704.04
30000 kPa, x2 = 0.0524	888.05	883.44
30000 kPa, x2 = 0.1018	875.23	870.7
30000 kPa, x2 = 0.1968	852.05	847.61
30000 kPa, x2 = 0.3006	828.48	824.28
30000 kPa, x2 = 0.4029	807.16	802.95
30000 kPa, x2 = 0.5017	787.91	783.76
30000 kPa, x2 = 0.6008	769.94	765.87
30000 kPa, x2 = 0.7023	752.73	748.83
30000 kPa, x2 = 0.7977	737.68	733.86
30000 kPa, x2 = 0.8986	722.85	719
30000 kPa, x2 = 0.952	715.45	711.62
40000 kPa, x2 = 0.0524	896.17	891.7
40000 kPa, x2 = 0.1018	883.24	878.82
40000 kPa, x2 = 0.1968	859.99	855.64
40000 kPa, x2 = 0.3006	836.22	832.09
40000 kPa, x2 = 0.4029	814.71	810.61
40000 kPa, x2 = 0.5017	795.32	791.32
40000 kPa, x2 = 0.6008	777.21	773.3
40000 kPa, x2 = 0.7023	759.89	756.08
40000 kPa, x2 = 0.7977	744.68	741.01
40000 kPa, x2 = 0.8986	729.72	726.09
40000 kPa, x2 = 0.952	722.25	718.59
50000 kPa, x2 = 0.0524	903.66	899.36
50000 kPa, x2 = 0.1018	890.68	886.42
50000 kPa, x2 = 0.1968	867.25	863
50000 kPa, x2 = 0.3006	843.41	839.43
50000 kPa, x2 = 0.4029	821.7	817.84
50000 kPa, x2 = 0.5017	802.25	798.42
50000 kPa, x2 = 0.6008	784.01	780.24
50000 kPa, x2 = 0.7023	766.55	762.91
50000 kPa, x2 = 0.7977	751.26	747.7
50000 kPa, x2 = 0.8986	736.16	732.64
50000 kPa, x2 = 0.952	728.63	725.09
60000 kPa, x2 = 0.0524	910.6	906.5
60000 kPa, x2 = 0.1018	897.63	893.49
60000 kPa, x2 = 0.1968	874.05	870.05
60000 kPa, x2 = 0.3006	850.18	846.26
60000 kPa, x2 = 0.4029	828.39	824.58
60000 kPa, x2 = 0.5017	808.8	805.08
60000 kPa, x2 = 0.6008	790.44	786.84
60000 kPa, x2 = 0.7023	772.89	769.41
60000 kPa, x2 = 0.7977	757.51	754.11
60000 kPa, x2 = 0.8986	742.26	738.96
60000 kPa, x2 = 0.952	734.67	731.32
65000 kPa, x2 = 0.0524	913.94	909.89
65000 kPa, x2 = 0.1018	900.93	896.87
65000 kPa, x2 = 0.1968	877.31	873.4
65000 kPa, x2 = 0.3006	853.35	849.57
65000 kPa, x2 = 0.4029	831.52	827.86
65000 kPa, x2 = 0.5017	811.84	808.29
65000 kPa, x2 = 0.6008	793.41	789.99
65000 kPa, x2 = 0.7023	775.8	772.52
65000 kPa, x2 = 0.7977	760.33	757.18
65000 kPa, x2 = 0.8986	745.06	741.94
65000 kPa, x2 = 0.952	737.4	734.28
